Reference: patent US9174980B2, “Heterocyclic compounds as inhibitors of leukotriene production” (Boehringer Ingelheim International GmbH, priority 2012, dated 2015)

Experiments:
[1] = test system: biomarkers for myocardial infarction risk; conditions: clinical trial; cited from earlier work
[2] = test system: synthesis of LTB4 in human whole blood; assay: Human whole blood assay (calcimycin-stimulated LTB4 synthesis); format: cell-based; conditions: Homo sapiens; read-out: Human Whole Blood LTB4 Assay for FLAP (IC50 nM)
Procedure, shortened: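 LTB4 levels in plasma were measured by antibody-based HTRF after heparinized human whole blood, pretreated with compound (15 min, 37° C), was challenged with 20 μM calcimycin for 30 min at 37° C.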

[3] = molecular target: T1, recombinant human FLAP protein (Homo sapiens, UniProt P20292); assay: FLAP binding assay (Scintillation Proximity Assay, displacement of [125I]L-691,831); conditions: read-out: Human FLAP SPA Binding (IC50 nM)
T1 construct: made in house; host or cells: Sf9 insect cells (membrane fraction, 100,000 x g pellet)
T1 sequence (P20292 1-161): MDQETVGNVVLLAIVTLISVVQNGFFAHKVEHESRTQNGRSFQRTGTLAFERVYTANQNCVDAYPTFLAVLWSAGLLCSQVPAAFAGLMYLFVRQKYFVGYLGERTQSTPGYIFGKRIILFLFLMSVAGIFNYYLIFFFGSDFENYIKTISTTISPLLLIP
Procedure, shortened: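 Scintillation proximity displacement format: 0.08 nM iodinated MK-591 analog [125I]L-691,831 competes with test compound for human FLAP in sf9 insect-cell membranes (5 μg/well, WGA beads), 2 h with shaking, pH 7.5 Tris buffer. 10 μM cold L-691,831 defines non-specific binding.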

[4] = test system: human glomerulonephritis; conditions: clinical trial; cited from earlier work
[5] = test system: apoE/LDL-R double knockout mice; conditions: oral dosing, high-fat diet from 2 months of age to 6 months; cited from earlier work
[6] = test system: ApoE−/−xCD4dnTβRII mice; conditions: infusion, treated for four weeks; cited from earlier work

Structure (SMILES)	IC50 [2] [nM]	IC50 [3] [nM]	also measured
O=C(O)[C@@H](c1ccc(OCc2ccc3ccccc3n2)cc1)C1CCCC1 [DG-031]			effect on biomarkers for myocardial infarction risk [1]: dose-dependent suppression of several biomarkers
COCCNC(=O)c1[nH]c2ccccc2c1C1(c2ccc(-c3cnc(N)nc3)cc2)CCC1 [Example 193]	450	7.9	
CN(C)C(=O)Cn1cc(-c2coc(C(C)(c3ccc(-c4cnc(N)nc4)cc3)C3CC3)n2)cn1 (stereo not drawn) [Example 194, 2-[4-(2-{1-[4-(2-aminopyrimidin-5-yl)phenyl]-1-cyclopropylethyl}-1,3-oxazol-4-yl)-1H-pyrazol-1-yl]-N-dimethylacetamide]	560	40	
CN(C)C(=O)Cn1cc(-c2coc([C@@](C)(c3ccc(-c4cnc(N)nc4)cc3)C3CC3)n2)cn1 [Example 195, 2-[4-(2-{(1R)-1-[4-(2-aminopyrimidin-5-yl)phenyl]-1-cyclopropylethyl}-1,3-oxazol-4-yl)-1H-pyrazol-1-yl]-N,N-dimethylacetamide]	280	18	
CN(C)C(=O)Cn1cc(-c2coc([C@](C)(c3ccc(-c4cnc(N)nc4)cc3)C3CC3)n2)cn1 [Example 196, 2-[4-(2-{(1S)-1-[4-(2-aminopyrimidin-5-yl)phenyl]-1-cyclopropylethyl}-1,3-oxazol-4-yl)-1H-pyrazol-1-yl]-N,N-dimethylacetamide]	2000	380	
CN(C)C(=O)Cn1cc(-c2cc([C@@](C)(c3ccc(-c4cnc(N)nc4)cc3)C3CC3)no2)cn1 [Example 197, 2-[4-(3-{(1R)-1-[4-(2-aminopyrimidin-5-yl)phenyl]-1-cyclopropylethyl}-1,2-oxazol-5-yl)-1H-pyrazol-1-yl]-N,N-dimethylacetamide]	93	5.3	
CN(C)C(=O)Cn1cc(-c2cc([C@](C)(c3ccc(-c4cnc(N)nc4)cc3)C3CC3)no2)cn1 [Example 198, 2-[4-(3-{(1S)-1-[4-(2-aminopyrimidin-5-yl)phenyl]-1-cyclopropylethyl}-1,2-oxazol-5-yl)-1H-pyrazol-1-yl]-N,N-dimethylacetamide]	1600	350	
Cn1cc(-c2cc(C(C)(c3ccc(-c4cnc(N)nc4)nc3)C3CC3)no2)cn1 (stereo not drawn) [Example 199, 5-(5-{1-Cyclopropyl-1-[5-(1-methyl-1H-pyrazol-4-yl)-isoxazol-3-yl]-ethyl}-pyridin-2-yl)-pyrimidin-2-ylamine]	590	230	
Cn1cc(-c2cc([C@@](C)(c3ccc(-c4cnc(N)nc4)nc3)C3CC3)no2)cn1 [Example 200]	450	140	
Cn1cc(-c2cc([C@](C)(c3ccc(-c4cnc(N)nc4)nc3)C3CC3)no2)cn1 [Example 201, 5-(5-{(S)-1-Cyclopropyl-1-[5-(1-methyl-1H-pyrazol-4-yl)-isoxazol-3-yl]-ethyl}-pyridin-2-yl)-pyrimidin-2-ylamine]	3500	> 2000	
CC(C)(O)Cn1cc(-c2coc(C(C)(c3ccc(-c4cnc(N)nc4)cc3)C3CC3)n2)cn1 (stereo not drawn) [Example 202, 1-[4-(2-{1-[4-(2-Amino-pyrimidin-5-yl)-phenyl]-1-cyclopropyl-ethyl}-oxazol-4-yl)-pyrazol-1-yl]-2-methyl-propan-2-ol]	230	69	
CC(C)(O)Cn1cc(-c2coc([C@@](C)(c3ccc(-c4cnc(N)nc4)cc3)C3CC3)n2)cn1 [Example 203, 1-[4-(2-{(R)-1-[4-(2-Amino-pyrimidin-5-yl)-phenyl]-1-cyclopropyl-ethyl}-oxazol-4-yl)-pyrazol-1-yl]-2-methyl-propan-2-ol]	190	36	
CC(C)(O)Cn1cc(-c2coc([C@](C)(c3ccc(-c4cnc(N)nc4)cc3)C3CC3)n2)cn1 [Example 204, 1-[4-(2-{(S)-1-[4-(2-Amino-pyrimidin-5-yl)-phenyl]-1-cyclopropyl-ethyl}-oxazol-4-yl)-pyrazol-1-yl]-2-methyl-propan-2-ol]	1500	560	
CN(C)C(=O)Cn1cc(-c2coc(C(C)(c3ccc(-c4cnc(N)nc4)nc3)C3CC3)n2)cn1 (stereo not drawn) [Example 205, 2-[4-(2-{1-[6-(2-Amino-pyrimidin-5-yl)-pyridin-3-yl]-1-cyclopropyl-ethyl}-oxazol-4-yl)-pyrazol-1-yl]-N,N-dimethyl-acetamide]	1600	1500	
Cn1cc(-c2coc(C(C)(c3ccc(-c4cnc(N)nc4)nc3)C3CC3)n2)cn1 (stereo not drawn) [Example 206, 5-(5-{1-Cyclopropyl-1-[4-(1-methyl-1H-pyrazol-4-yl)-oxazol-2-yl]-ethyl}-pyridin-2-yl)-pyrimidin-2-ylamine]	930	180	
Cn1cc(-c2coc([C@@](C)(c3ccc(-c4cnc(N)nc4)nc3)C3CC3)n2)cn1 [Example 207, 5-(5-{(R)-1-Cyclopropyl-1-[4-(1-methyl-1H-pyrazol-4-yl)-oxazol-2-yl]-ethyl}-pyridin-2-yl)-pyrimidin-2-ylamine]	220	110	
Cn1cc(-c2coc([C@](C)(c3ccc(-c4cnc(N)nc4)nc3)C3CC3)n2)cn1 [Example 208, 5-(5-{(S)-1-Cyclopropyl-1-[4-(1-methyl-1H-pyrazol-4-yl)-oxazol-2-yl]-ethyl}-pyridin-2-yl)-pyrimidin-2-ylamine]	1300	> 2000	
CC(C)(O)Cn1cc(-c2coc(C(C)(c3ccc(-c4cnc(N)nc4)nc3)C3CC3)n2)cn1 (stereo not drawn) [Example 209, 1-[4-(2-{1-[6-(2-Amino-pyrimidin-5-yl)-pyridin-3-yl]-1-cyclopropyl-ethyl}-oxazol-4-yl)-pyrazol-1-yl]-2-methyl-propan-2-ol]	560	300	
CC(C)(O)Cn1cc(-c2coc([C@@](C)(c3ccc(-c4cnc(N)nc4)nc3)C3CC3)n2)cn1 [Example 210, 1-[4-(2-{(R)-1-[6-(2-Amino-pyrimidin-5-yl)-pyridin-3-yl]-1-cyclopropyl-ethyl}-oxazol-4-yl)-pyrazol-1-yl]-2-methyl-propan-2-ol]	530	180	
CC(C)(O)Cn1cc(-c2coc([C@](C)(c3ccc(-c4cnc(N)nc4)nc3)C3CC3)n2)cn1 [Example 211, 1-[4-(2-{(S)-1-[6-(2-Amino-pyrimidin-5-yl)-pyridin-3-yl]-1-cyclopropyl-ethyl}-oxazol-4-yl)-pyrazol-1-yl]-2-methyl-propan-2-ol]	> 5000	> 2000	
CC(C)(O)Cn1cc(-c2cnc(C(C)(c3ccc(-c4cnc(N)nc4)nc3)C3CC3)s2)cn1 (stereo not drawn) [Example 212, 1-[4-(2-{1-[6-(2-Amino-pyrimidin-5-yl)-pyridin-3-yl]-1-cyclopropyl-ethyl}-thiazol-5-yl)-pyrazol-1-yl]-2-methyl-propan-2-ol]	410	130	
CC(C)(C)Sc1c(CC(C)(C)C(=O)O)n(Cc2ccc(Cl)cc2)c2ccc(OCc3ccc4ccccc4n3)cc12 [MK-591]			effect on proteinuria [4]: reduce proteinuria
CC(C)c1ccc2c(c1)c(SC(C)(C)C)c(CC(C)(C)C(=O)O)n2Cc1ccc(Cl)cc1 [MK-886]			decrease in plaque coverage in the aorta [5]: 56%; decrease in plaque coverage in the aortic root [5]: 43%; decrease in plaque area in the aortic root [6]: ~40%
